Experiment: In vitro thromboxane receptor antagonist activity was determined by inhibition of U-46619 induced aggregation of washed human platelets

| SMILES | IC50 [nM] |
| --- | --- |
| O=C(O)CC/C=C\CC[C@@H]1[C@@H](c2cccnc2)[S@@+]([O-])C[C@H]1OCc1ccc(-c2ccccc2)cc1 | 105 |
| O=C(O)CC/C=C\CC[C@@H]1[C@@H](c2cccnc2)[S@+]([O-])C[C@H]1OCc1ccc(-c2ccccc2)cc1 | 77 |
| O=C(O)CC/C=C\CC[C@H]1[C@@H](OCc2ccc(-c3ccccc3)cc2)CS(=O)(=O)[C@@H]1c1cccnc1 [(Z)-7-[(2S,3S,4R)-4-(Biphenyl-4-ylmethoxy)-1,1-dioxo-2-pyridin-3-yl-tetrahydro-1lambda*6*-thiophen-3-yl]-hept-4-enoic acid] | 24 |
| O=C(O)CC/C=C\CC[C@H]1[C@@H](OCc2ccc(-c3ccccc3)cc2)C[S+]([O-])[C@@H]1c1cccnc1 (stereo partly drawn) [(Z)-7-[(2S,3S,4R)-4-(Biphenyl-4-ylmethoxy)-1-oxo-2-pyridin-3-yl-tetrahydro-1lambda*4*-thiophen-3-yl]-hept-4-enoic acid] | 57 |
| O=C(O)CC/C=C\CC[C@H]1[C@@H](OCc2ccc(-c3ccccc3)cc2)CS[C@@H]1c1cccnc1 [(Z)-7-[(2S,3S,4R)-4-(Biphenyl-4-ylmethoxy)-2-pyridin-3-yl-tetrahydro-thiophen-3-yl]-hept-4-enoic acid] | 46 |
| O=C(O)CC/C=C\CC[C@@H]1[C@@H](c2cccnc2)S(=O)(=O)C[C@H]1OCc1ccc(-c2ccccc2)cc1 [(Z)-7-[(2S,3S,4S)-4-(Biphenyl-4-ylmethoxy)-1,1-dioxo-2-pyridin-3-yl-tetrahydro-1lambda*6*-thiophen-3-yl]-hept-4-enoic acid] | 18 |
| O=C(O)CCC/C=C\C[C@@H]1[C@@H](c2cccnc2)SC[C@H]1OCc1ccc(-c2ccccc2)cc1 [(Z)-7-[(2S,3S,4S)-4-(Biphenyl-4-ylmethoxy)-2-pyridin-3-yl-tetrahydro-thiophen-3-yl]-hept-5-enoic acid] | 228 |
| O=C(O)CC/C=C\CC[C@@H]1[C@@H](N2CCCCC2)[C@@H](O)C[C@@H]1OCc1ccc(-c2ccccc2)cc1 [GR 32191] | 12 |

Experiment: as above
Remark: another data set of the same source

| SMILES | IC50 [nM] |
| --- | --- |
| O=C(O)CC/C=C\CC[C@@H]1[C@@H](c2cccnc2)SC[C@H]1OCc1ccc(-c2ccccc2)cc1 [(Z)-7-[(2S,3S,4S)-4-(Biphenyl-4-ylmethoxy)-2-pyridin-3-yl-tetrahydro-thiophen-3-yl]-hept-4-enoic acid] | 46 |

Experiment: as above
Remark: another data set of the same source

| SMILES | IC50 [nM] |
| --- | --- |
| O=C(O)CC/C=C\CC[C@@H]1[C@@H](c2cccnc2)SC[C@H]1OCc1ccc(-c2ccccc2)cc1 [(Z)-7-[(2S,3S,4S)-4-(Biphenyl-4-ylmethoxy)-2-pyridin-3-yl-tetrahydro-thiophen-3-yl]-hept-4-enoic acid] | 22 |

Source: BindingDB's records for doi:10.1016/S0960-894X(01)80103-7 (1994)
